We go through 18 compounds from article PMC12380353, “MK-8527 is a novel inhibitor of HIV-1 reverse transcriptase translocation with potential for extended-duration dosing” (PLOS Biology, 2025).

Series [1] deals with HIV-1. Put plainly: Single-cycle antiviral assay in PBMCs. The series is classed as cell-based. On the procedure:
To evaluate the ability of inhibitors to prevent HIV-1 infection in primary cells, human PBMCs obtained from Biological Specialty Corporation (Colmar, PA, USA) were used to assess antiviral activity. The proviral variants used for these studies were generated by site-directed mutagenesis in a proviral vector derived from NL43 [52] that encodes GFP (pNLG1-P2A-GFP). Virus was produced by transfection in 293T cells.
PBMCs were activated with phytohemagglutinin (PHA) at 5 μg/mL in Roswell Park Memorial Institute (RPMI) 1640 medium containing 10% heat-inactivated fetal bovine serum (FBS) for 2–3 days. Compound plates were prepared by dispensing compounds dissolved in DMSO into 384-well poly-d-lysine-coated plates (0.2 μL per well) using an Echo acoustic dispenser (Labcyte; San Jose, CA, USA). Each compound was tested in a 10-point serial 3-fold dilution (typical final concentrations: 5,000 to 0.1 nM). Controls included no inhibitor (DMSO only) and a combination of 3 antiviral agents, efavirenz, indinavir, and the integrase strand transfer inhibitor, L-002254051, at final concentrations of 4 μM each. PHA-activated human PBMCs were washed and resuspended in RPMI 1640 containing 10% NHS and 30 units per mL of interleukin-2 (IL-2) at 6 × 10^5 cells per mL. PBMCs were added to the compound plates and cultured for 24 h at 37 °C, 5% CO2, and 90% humidity. The appropriate HIV-1 variant was added to the PBMCs and cultured at 37 °C, 5% CO2, and 90% humidity for an additional 24 h.
HIV-1–infected cells were quantified by counting the number of GFP cells in each well using an Acumen eX3 scanner (SPT Labtech; Melbourn, UK).

Series [2] has as its system HIV-1. Put plainly: Multicycle antiviral assay in MT4-GFP cells. The following applies: 10% NHS. The series is classed as cell-based. How it is done:
Compounds were evaluated for their ability to prevent HIV-1 infection in MT4-GFP cells as described in Diamond, and colleagues. HIV-1 replication was monitored using the MT4-gag-GFP clone D3, and MT4 cells with a GFP reporter gene, the expression of which is dependent on the HIV-1 expressed proteins tat and rev. […] Proviral variants used for these studies were generated by site-directed mutagenesis in the WT R8 proviral plasmid. Virus was produced by transfection in 293T cells.
Briefly, MT4-GFP cells were cultured overnight with the appropriate HIV-1 variant at an approximate multiplicity of infection of 0.01. After approximately 19 h of infection, the cells were washed and resuspended in assay media containing 10% normal human serum (NHS) before being added to 384-well compound plates containing 10-point serial 3-fold dilutions of compound. Controls included no inhibitor (dimethyl sulfoxide [DMSO] only) and a combination of 3 antiviral agents, efavirenz, indinavir, and an integrase strand transfer inhibitor, L-002254051, at final concentrations of 4 µM each. The infected or treated cells were cultured at 37 °C, 5% CO2, and 90% humidity until evaluation of infection was conducted at approximately 48 and 72 h post-infection by counting the number of GFP cells in each well using an Acumen eX3 scanner (SPT Labtech; Melbourn, UK). The reproductive ratio, R, was calculated by dividing the number of infected cells at 72 h by the number at 48 h post-infection. The percentage inhibition caused by a test compound was calculated by the following formula:
inhibition = [1−(Rtest compound − Rpositive control)]/(RDMSO only − Rpositive control) × 100%\]
The dose–response curves of each test compound were plotted as percentage inhibition versus the test concentration.

The subject of series [3] is MT4-GFP cells. Put plainly: CellTiter-Glo (CTG) cytotoxicity in MT4-GFP cells. The following applies: read-out: MT4-GFP CTG CC50, CellTiter-Glo.
The nature of series [4]: CellTiter-Glo (CTG) cytotoxicity in MT4-GFP cells. The settings on record: human.
Where [5] appears, read: Human immunodeficiency virus 1, PBMC, read-out: PBMC IC50, HIV-1, single-cycle assay, human PBMCs, 10% NHS.
Where [6] appears, read: Human immunodeficiency virus 1, WT HIV-1, multicycle assay.

Bounds are passed on as bounds.

As to “(2R,3S,5R)-5-(4-amino-5-fluoro-7H-pyrrolo[2,3-d]pyrimidin-7-yl)-2-ethynyl-2-(hydroxymethyl)tetrahydrofuran-3-ol [Compound 9]”, the half-maximal inhibitory concentration (IC50) (in general, the concentration needed to halve the response being measured) in series [1] (HIV-1, single-cycle assay, human PBMCs, 10% NHS, read-out: PBMC IC50) worked out at 3410 nM; in series [2] (WT HIV-1, multicycle assay) it was 37200 nM. Besides, the CC50 – broadly, the concentration at which the toxic effect on the cells reaches its halfway point – in series [3] is over 42000 nM.

Consider `C#C[C@]1(CO)O[C@@H](n2cc(F)c3c(N)nc(Cl)nc32)C[C@@H]1O` [Compound 13, (2R,3S,5R)-5-(4-amino-2-chloro-5-fluoro-7H-pyrrolo[2,3-d]pyrimidin-7-yl)-2-ethynyl-2-(hydroxymethyl)tetrahydrofuran-3-ol], for which the “PBMC IC50” value in series [1] (HIV-1, single-cycle assay, human PBMCs, 10% NHS) is “subnanomolar potency”. In addition, the IC50 came out at 0.2 nM in series [1] (setting [5]) and 2.4 nM in series [2] (setting [6]). Besides, the “MT4-GFP IC50” value in series [2] (WT HIV-1, multicycle assay) was “single-digit nanomolar potency”. The half-maximal cytotoxic concentration (CC50) in series [4] is over 42000 nM.

With `C#C[C@]1(CO)C[C@@H](n2ccc3c(N)nc(Cl)nc32)C[C@@H]1O` [Compound 19, (1S,2S,4R)-4-(4-amino-2-chloro-7H-pyrrolo[2,3-d]pyrimidin-7-yl)-2-ethynyl-2-(hydroxymethyl)cyclopentan-1-ol], the half-inhibitory concentration (IC50) in series [1] (setting [5]) was found to be 1160 nM; in series [2] (setting [6]), 22600 nM. The compound also registered a CC50 in series [4] of over 42000 nM.

On to `C#C[C@]1(CO)O[C@@H](n2ccc3c(N)nc(N)nc32)C[C@@H]1O` [Compound 14, (2R,3S,5R)-5-(2,4-diamino-7H-pyrrolo[2,3-d]pyrimidin-7-yl)-2-ethynyl-2-(hydroxymethyl)tetrahydrofuran-3-ol], for which the half-maximal inhibitory concentration (IC50) stood at 257 nM in series [1] (setting [5]) and 277 nM in series [2] (setting [6]). For the same compound, in series [4], the CC50 was over 42000 nM.

On to `C#C[C@]1(CO)O[C@@H](n2cc(C)c3c(N)ncnc32)C[C@@H]1O` [Compound 7, (2R,3S,5R)-5-(4-amino-5-methyl-7H-pyrrolo[2,3-d]pyrimidin-7-yl)-2-ethynyl-2-(hydroxymethyl)tetrahydrofuran-3-ol], for which the IC50 was 682 nM in series [1] (setting [5]) and 1680 nM in series [2] (setting [6]). This compound also gave a CC50 in series [4] of over 42000 nM.

For `C#C[C@]1(CO)O[C@@H](n2cnc3c(N)nc(C(F)(F)F)nc32)C[C@@H]1O` [Compound 3, (2R,3S,5R)-5-(6-amino-2-(trifluoromethyl)-9H-purin-9-yl)-2-ethynyl-2-(hydroxymethyl)tetrahydrofuran-3-ol], the IC50 was over 11900 nM in series [1] (setting [5]) and over 42000 nM in series [2] (setting [6]). Besides, in series [4], the CC50 was over 42000 nM.

Consider `C#C[C@]1(CO)O[C@@H](n2cnc3c(N)nc(C)nc32)C[C@@H]1O` [Compound 2, (2R,3S,5R)-5-(6-amino-2-methyl-9H-purin-9-yl)-2-ethynyl-2-(hydroxymethyl)-tetrahydrofuran-3-ol], for which the IC50 in series [1] (setting [5]) is 35.9 nM; in series [2] (setting [6]) it was 109 nM. The compound further registered a cytotoxic concentration (CC50) in series [4] of over 42000 nM.

`C#C[C@]1(CO)O[C@@H](n2nnc3c(N)ncnc32)C[C@@H]1O` [Compound 15, (2R,3S,5R)-5-(7-amino-3H-[1,2,3]triazolo[4,5-d]pyrimidin-3-yl)-2-ethynyl-2-(hydroxymethyl)tetrahydrofuran-3-ol]: the IC50 was found to be 7570 nM in series [1] (setting [5]) and 7590 nM in series [2] (setting [6]). Moreover, the “MT4-GFP IC50” value in series [2] (WT HIV-1, multicycle assay) is “completely inactive”. The compound also returned a CC50 in series [4] of over 42000 nM.

As for `C#C[C@]1(CO)O[C@@H](n2ccc3c(N)nc(F)nc32)C[C@@H]1O` [Compound 11, (2R,3S,5R)-5-(4-amino-2-fluoro-7H-pyrrolo[2,3-d]pyrimidin-7-yl)-2-ethynyl-2-(hydroxymethyl)tetrahydrofuran-3-ol], the 50% inhibitory concentration (IC50) in series [1] (setting [5]) was 10.5 nM; in series [2] (setting [6]) it was 16.8 nM. This compound also displayed a CC50 in series [4] of over 42000 nM.

As to `C#C[C@]1(CO)O[C@@H](n2ccc3c(N)ncnc32)C[C@@H]1O` [Compound 5, (2R,3S,5R)-5-(4-amino-7H-pyrrolo[2,3-d]pyrimidin-7-yl)-2-ethynyl-2-(hydroxymethyl)tetrahydrofuran-3-ol], the IC50 turned out to be 0.9 nM in series [1] (setting [5]) and 1.9 nM in series [2] (setting [6]). This compound displayed a CC50 in series [4] of 30800 nM.

For `C#C[C@]1(CO)C[C@@H](n2cnc3c(=O)[nH]c(N)nc32)C[C@@H]1O` [Compound 20, 2-amino-9-((1R,3S,4S)-3-ethynyl-4-hydroxy-3-(hydroxymethyl)-cyclopentyl)-1,9-dihydro-6H-purin-6-one], the IC50 in series [1] (setting [5]) was 20.4 nM; in series [2] (setting [6]), 103 nM. The same compound displayed a CC50 in series [4] of over 42000 nM.

In the case of `C#C[C@]1(CO)O[C@@H](n2cnc3c(NC4CC4)nc(F)nc32)C[C@@H]1O` [Compound 4, (2R,3S,5R)-5-(6-(cyclopropylamino)-2-fluoro-9H-purin-9-yl)-2-ethynyl-2-(hydroxymethyl)tetrahydrofuran-3-ol], the figures for the IC50 in series [1] (setting [5]) and in series [2] (setting [6]) were 3290 nM and 4300 nM, respectively. This compound also returned a CC50 in series [4] of over 42000 nM.

Turning to `C#C[C@]1(CO)O[C@@H](n2c(C)cc3c(N)ncnc32)C[C@@H]1O` [Compound 6, (2R,3S,5R)-5-(4-amino-6-methyl-7H-pyrrolo[2,3-d]pyrimidin-7-yl)-2-ethynyl-2-(hydroxymethyl)tetrahydrofuran-3-ol], the IC50 in series [1] (setting [5]) and in series [2] (setting [6]) was over 2000 nM in each case. This compound also yielded a CC50 in series [4] of over 42000 nM.

On to `C#C[C@]1(CO)O[C@@H](n2cc(-c3ccn[nH]3)c3c(N)ncnc32)C[C@@H]1O` [Compound 10, (2R,3S,5R)-5-(4-amino-5-(1H-pyrazol-5-yl)-7H-pyrrolo[2,3-d]pyrimidin-7-yl)-2-ethynyl-2-(hydroxymethyl)tetrahydrofuran-3-ol], for which the half-inhibitory concentration (IC50) was found to be 907 nM in series [1] (setting [5]) and 1590 nM in series [2] (setting [6]). In series [4], this compound displayed a CC50 of over 42000 nM.

For `C#CC1(CO)CC(n2cnc3c(N)nc(Cl)nc32)CC1O` (stereo not drawn) [Compound 18, 4-(6-amino-2-chloro-9H-purin-9-yl)-2-ethynyl-2-(hydroxy-methyl)-cyclopentan-1-ol], the IC50 amounted to 982 nM in series [1] (setting [5]) and 22700 nM in series [2] (setting [6]). Also, the CC50 in series [4] was over 42000 nM.

`C#C[C@]1(CO)O[C@@H](c2ccc3c(N)ncnn23)C[C@@H]1O` [Compound 16, (2R,3S,5R)-5-(4-aminopyrrolo[2,1-f][1,2,4]triazin-7-yl)-2-ethynyl-2-(hydroxymethyl)tetrahydrofuran-3-ol]: the results for the IC50 in series [1] (setting [5]) and in series [2] (setting [6]) were 19.2 nM and 21.6 nM, respectively. For the same compound, the midpoint of cytotoxicity in series [4], the CC50, lay at 22300 nM.

As for `C#C[C@]1(CO)O[C@@H](n2cnc3c(N)nc(Cl)nc32)C[C@@H]1O` [Compound 1, (2R,3S,5R)-5-(6-amino-2-chloro-9H-purin-9-yl)-2-ethynyl-2-(hydroxymethyl)-tetrahydrofuran-3-ol], the IC50 in series [1] (setting [5]) turned out to be 0.4 nM; in series [2] (setting [6]), 2.7 nM. This compound also returned a CC50 in series [4] of over 42000 nM.

As to `C#CC1(CO)CC(n2cnc3c(N)nc(F)nc32)CC1O` (stereo not drawn) [Compound 17, 4-(6-amino-2-fluoro-9H-purin-9-yl)-2-ethynyl-2-(hydroxy-methyl)cyclopentan-1-ol], the IC50 turned out to be 383 nM in series [1] (setting [5]) and 5020 nM in series [2] (setting [6]). The cytotoxic concentration (CC50) in series [4] was over 42000 nM.
